The source of these data is US20060178374A1, “Aminoheteroaryl compounds as protein kinase inhibitors” (AGOURON PHARMACEUTICALS, INC., priority 2004, published 2006).

Chain of HGFR (c-Met) (P08581 974-1390): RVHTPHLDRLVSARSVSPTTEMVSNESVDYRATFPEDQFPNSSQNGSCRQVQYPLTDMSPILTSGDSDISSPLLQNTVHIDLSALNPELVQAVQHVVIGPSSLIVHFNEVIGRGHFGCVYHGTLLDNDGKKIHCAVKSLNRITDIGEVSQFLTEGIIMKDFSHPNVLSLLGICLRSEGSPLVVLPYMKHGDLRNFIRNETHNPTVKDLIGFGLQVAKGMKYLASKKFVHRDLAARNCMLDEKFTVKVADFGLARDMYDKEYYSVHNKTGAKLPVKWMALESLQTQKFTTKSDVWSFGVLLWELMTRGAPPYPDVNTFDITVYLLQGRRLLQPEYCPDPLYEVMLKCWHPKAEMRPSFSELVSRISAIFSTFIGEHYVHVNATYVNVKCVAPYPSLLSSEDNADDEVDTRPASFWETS

The first assay concerns the target HGFR (c-Met) (Homo sapiens, UniProt P08581). The assay is described as follows: HGFR Continuous-Coupled Spectrophotometric Assay. Format: biochemical. Conditions: HGFR enzyme 50 nM, Met-2 peptide substrate, 37° C. In outline: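 Human HGFR (50 nM final) phosphorylates the Met-2 activation-loop peptide, with ADP formation coupled through PK/LDH to NADH consumption, read as the A340 decrease over 10 min at 37 °C. Buffer was HEPES pH 7.5 with MgCl2, DTT, PEP and ATP.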
As to `CC(Oc1cc(-c2ccc(NC(=O)N3CCNCC3)cc2)cnc1N)c1c(Cl)ccc(F)c1Cl` (centres unmarked) [Example 40, Piperazine-1-carboxylic acid (4-{6-amino-5-[1-(2,6-dichloro-3-fluoro-phenyl)-ethoxy]-pyridin-3-yl}-phenyl)-amide], the affinity corresponds to a Ki of 88 nM. With `CC(Oc1cc(-c2ccc(C(=O)NCC3CCNCC3)cc2)cnc1N)c1c(Cl)ccc(F)c1Cl` (centres unmarked) [Example 13, 4-{6-Amino-5-[1-(2,6-dichloro-3-fluorophenyl)ethoxy]pyridin-3-yl}-N-(piperidin-4-ylmethyl)benzamide], the inhibitory constant (Ki) stood at 48 nM.

On to `CC(Oc1cc(-c2ccc(OCCC3CCNCC3)nc2)cnc1N)c1c(Cl)ccc(F)c1Cl` (centres unmarked) [Example 74, 5-[1-(2,6-Dichloro-3-fluoro-phenyl)-ethoxy]-6′-(2-piperidin-4-yl-ethoxy)-[3,3′]bipyridinyl-6-ylamine], for which the Ki was 47 nM. `C[C@@H](Oc1cc(-c2ccc(C(=O)N3CCN(C(=O)OC(C)(C)C)CC3)cc2)cnc1N)c1c(Cl)ccc(F)c1Cl` [Example 129, tert-butyl 4-(4-{6-amino-5-[(1 R)-1-(2,6-dichloro-3-fluorophenyl)ethoxy]pyridin-3-yl}benzoyl)piperazine-1-carboxylate] gave a Ki of 30 nM. In turn, `CC(Oc1cc(-c2ccc(N3CCNCC3)nc2)cnc1N)c1c(Cl)ccc(F)c1Cl` (centres unmarked) [Example 73, 5-[1-(2,6-Dichloro-3-fluoro-phenyl)-ethoxy]-6′-piperazin-1-yl-[3,3′]bipyridinyl-6-ylamine] had a Ki of 21 nM.

In turn, `CCOC(=O)c1[nH]c(C)c(-c2cnc(N)c(OC(C)c3c(Cl)ccc(F)c3Cl)c2)c1C` (centres unmarked) [Example 41, 4-{6-Amino-5-[1-(2,6-dichloro-3-fluoro-phenyl)-ethoxy]-pyridin-3-yl}-3,5-dimethyl-1H-pyrrole-2-carboxylic acid ethyl ester] displayed a Ki of 2090 nM.

Take `COc1cc(-c2cnc(N)c(OC(C)c3c(Cl)ccc(F)c3Cl)c2)ccc1CN1CCNCC1` (centres unmarked) [Example 29, 3-[1-(2,6-dichloro-3-fluorophenyl)ethoxy]-5-[3-methoxy-4-(piperazin-1-ylmethyl)phenyl]pyridin-2-amine]: the Ki was 12.3 nM.

Turning to `CC(Oc1cc(-c2ccc(NCC3(O)CCNCC3)nc2)cnc1N)c1c(Cl)ccc(F)c1Cl` (centres unmarked) [Example 124, 4-[({6′-amino-5′-[1-(2,6-dichloro-3-fluorophenyl)ethoxy]-3,3′-bipyridin-6-yl}amino)methyl]piperidin-4-ol], the affinity, expressed as Ki, was 20 nM. Still for that read-out and setting: in the case of `CC(Oc1cc(-c2cn(C3CCNCC3)cn2)cnc1N)c1c(Cl)ccc(F)c1Cl` (centres unmarked) [Example 77, 3-[1-(2,6-Dichloro-3-fluoro-phenyl)-ethoxy]-5-(1-piperidin-4-yl-1H-imidazol-4-yl)-pyridin-2-ylamine] it was 38 nM; in that of `CNCCCNC(=O)c1ccc(-c2cnc(N)c(OC(C)c3c(Cl)ccc(F)c3Cl)c2)cc1` (centres unmarked) [Example 10, 4-{6-Amino-5-[1-(2,6-dichloro-3-fluorophenyl)ethoxy]pyridin-3-yl}-N-[3-(methylamino)propyl)benzamide], 37 nM.

`C[C@@H](Oc1nc(-c2ccc(C(=O)N3CCN(C(=O)OC(C)(C)C)CC3)cc2)cnc1N)c1c(Cl)ccc(F)c1Cl` [Example 49, 4-(4-{5-Amino-6-[(R)-1-(2,6-dichloro-3-fluoro-phenyl)-ethoxy]-pyrazin-2-yl}-benzoyl)-piperazine-1-carboxylic acid tert-butyl ester] came in with a Ki of 335 nM. With `CC(=O)N1CCC(C#N)(c2cccc(-c3cnc(N)c(OC(C)c4c(Cl)ccc(F)c4Cl)c3)c2)CC1` (centres unmarked) [Example 154, 1-acetyl-4-(3-{6-amino-5-[1-(2,6-dichloro-3-fluorophenyl)ethoxy]pyridin-3-yl}phenyl) piperidine-4-carbonitrile], the inhibitory constant (Ki) was found to be 22 nM. For the compound `CC(Oc1cc(-c2ccc(OCC(=O)N3CCNCC3)cc2)cnc1N)c1c(Cl)ccc(F)c1Cl` (centres unmarked) [Example 33, 2-(4-{6-Amino-5-[1-(2,6-dichloro-3-fluoro-phenyl)-ethoxy]-pyridin-3-yl}-phenoxy)-1-piperazin-1-yl-ethanone], the inhibitory constant (Ki) was determined as 14700 nM. Regarding `Nc1ncc(-c2ccc(OCCN3CCCC3)cc2)cc1OC1CCCCc2ccc(F)cc21` (centres unmarked) [Example 37, 3-(3-Fluoro-6,7,8,9-tetrahydro-5H-benzocyclohepten-5-yloxy)-5-[4-(2-pyrrolidin-1-yl-ethoxy)-phenyl]-pyridin-2-ylamine], the inhibition constant (Ki) stood at 8270 nM. The same measure, in the same setting: in the case of `Cc1ccc(Cl)c(C(C)Oc2cc(-c3ccc(C(=O)N4CCC(N5CCCC5)CC4)cc3)cnc2N)c1F` (centres unmarked) [Example 82, (4-{6-Amino-5-[1-(6-chloro-2-fluoro-3-methyl-phenyl)-ethoxy]-pyridin-3-yl}-phenyl)-(4-pyrrolidin-1-yl-piperidin-1-yl)-methanone] it was 410 nM; in that of `COc1cc(-c2cnc(N)c(OC(C)c3c(Cl)ccc(F)c3Cl)c2)ccc1CO` (centres unmarked) [Example 26, (4-{6-amino-5-[1-(2,6-dichloro-3-fluorophenyl)ethoxy]pyridin-3-yl}-2-methoxyphenyl) methanol], 79.5 nM.

For `CC(Oc1cc(-c2ccc(C(=O)N(C)C)cc2)cnc1N)c1c(Cl)ccc(F)c1Cl` (centres unmarked) [Example 135, 4-{6-amino-5-[1-(2,6-dichloro-3-fluorophenyl)ethoxy]pyridin-3-yl}-N,N-dimethylbenzamide], the affinity corresponds to a Ki of 37 nM. For the compound `CC(Oc1cc(-c2ccc(C(=O)NCCN)cc2)cnc1N)c1c(Cl)ccc(F)c1Cl` (centres unmarked) [Example 17, 4-{6-Amino-5-[1-(2,6-dichloro-3-fluorophenyl)ethoxy]pyridin-3-yl}N-(2-aminoethyl) benzamide], the Ki was found to be 68 nM. On the same count and under the same terms, for `CC(Oc1cc(-c2ccc(CC#N)cc2)cnc1N)c1c(Cl)ccc(F)c1Cl` (centres unmarked) [Example 134, (4-{6-amino-5-[1-(2,6-dichloro-3-fluorophenyl)ethoxy]pyridin-3-yl}phenyl)acetonitrile] the value was 92 nM; for `CC(Oc1cc(-c2cnc3[nH]c(=O)oc3c2)cnc1N)c1c(Cl)ccc(F)c1Cl` (centres unmarked) [Example 107, 6-{6-amino-5-[1-(2,6-dichloro-3-fluorophenyl)ethoxy]pyridin-3-yl}(1,3]oxazolo[4,5-b]pyridin-2 (3H)-one], 27 nM; for `C[C@@H](Oc1cc(-c2ccc(C(=O)N(C)CCN(C)C)cc2)cnc1N)c1c(Cl)ccc(F)c1Cl` [Example 126, 4-{6-amino-5-[(1 R)-1-(2,6-dichloro-3-fluorophenyl)ethoxy]pyridin-3-yl}-N-[2-(dimethylamino)ethyl]-N-methylbenzamide], 10 nM.

`CC(Oc1cc(N2CCCC2=O)cnc1N)c1c(Cl)ccc(F)c1Cl` (centres unmarked) [Example 90, N-{6-Amino-5-[1-(2,6-dichloro-3-fluoro-phenyl)-ethoxy]-pyridin-3-yl}-pyrrolidin-2-one] showed a Ki of 910 nM. Still for that read-out and setting: for `CC(Oc1cc(-c2ccc(CO)cn2)cnc1N)c1c(Cl)ccc(F)c1Cl` (centres unmarked) [Example 146, {6′-amino-5′-[1-(2,6-dichloro-3-fluorophenyl)ethoxy]-2,3′-bipyridin-5-yl}methanol] the value was 655 nM. As to `C[C@@H](Oc1nc(-c2ccc(C(=O)O)cc2)cnc1N)c1c(Cl)ccc(F)c1Cl` [Example 47, 4-{5-Amino-6-[(R)-1-(2,6-dichloro-3-fluoro-phenyl)-ethoxy]-pyrazin-2-yl}-benzoic acid], the inhibitory constant (Ki) is 154 nM. `Cc1cn(-c2cnc(N)c(OC(C)c3c(Cl)ccc(F)c3Cl)c2)cn1` (centres unmarked) [Example 85, 3-[1-(2,6-Dichloro-3-fluoro-phenyl)-ethoxy]-5-(4-methyl-imidazol-1-yl)-pyridin-2-ylamine] displayed an inhibition constant Ki of 780 nM. Consider `CC(Oc1cc(-c2ccc(N3CCC(CO)CC3)nc2)cnc1N)c1c(Cl)ccc(F)c1Cl` (centres unmarked) [Example 65, {6″-Amino-5″-[1-(2,6-dichloro-3-fluoro-phenyl)-ethoxy]-3,4,5,6-tetrahydro-2H-[1,2′;5′,3″]terpyridin-4-yl}-methanol], for which the inhibitory constant (Ki) was determined as 43.5 nM.

The compound `COc1cc(C(=O)Nc2cnc(N)c(OC(C)c3c(Cl)ccc(F)c3Cl)c2)ccn1` (centres unmarked) [Example 92, N-{6-Amino-5-[1-(2,6-dichloro-3-fluoro-phenyl)-ethoxy]-pyridin-3-yl}-2-methoxy-isonicotinamide] had a Ki of 1690 nM. For `COc1ccc(C(=O)Nc2cnc(N)c(OC(C)c3c(Cl)ccc(F)c3Cl)c2)cc1` (centres unmarked) [Example 91, N-{6-Amino-5-[1-(2,6-dichloro-3-fluoro-phenyl)-ethoxy]-pyridin-3-yl}4-methoxy-benzamide], the Ki came to 1320 nM. `CC(Oc1cc(-c2cccc(NS(C)(=O)=O)c2)cnc1N)c1c(Cl)ccc(F)c1Cl` (centres unmarked) [Example 141, N-(3-{6-amino-5-[1-(2,6-dichloro-3-fluorophenyl)ethoxy]pyridin-3-yl}phenyl) methanesulfonamide] returned a Ki of 54 nM. `CC(Oc1cc(-c2ccc(C(=O)N(C)CCN(C)C)cc2)cnc1N)c1c(Cl)ccc(F)c1Cl` (centres unmarked) [Example 118, 4-{6-amino-5-[1-(2,6-dichloro-3-fluorophenyl)ethoxy]pyridin-3-yl}-N-[2-(dimethylamino)ethyl]-N-methylbenzamide] showed an inhibitory constant (Ki) of 30 nM. The compound `C[C@@H]1CN(C(=O)c2ccc(-c3cnc(N)c(OC4CCCCc5ccc(F)cc54)c3)cc2)C[C@H](C)N1` (stereo partly drawn) [Example 36, {4-[6-Amino-5-(3-fluoro-6,7,8,9-tetrahydro-5H-benzocyclohepten-5-yloxy)-pyridin-3-yl]-phenyl}-((3R,5S)-3,5-dimethyl-piperazin-1-yl)-methanone] had a Ki of 6280 nM.

Still in this assay, the particulars now being: compound at 1 μM.
Compound `CC(Oc1cc(-c2ccc(C(=O)NCC3CCNCC3)cc2)cnc1N)c1c(Cl)ccc(F)c1Cl` (centres unmarked) [Example 13, 4-{6-Amino-5-[1-(2,6-dichloro-3-fluorophenyl)ethoxy]pyridin-3-yl}-N-(piperidin-4-ylmethyl)benzamide] gave an inhibition at 1 µM of 87%. In the case of `CCC(Oc1cc(-c2ccc(C(=O)N3CCC(N4CCCC4)CC3)cc2)cnc1N)c1cc(F)c(F)cc1F` (centres unmarked) [Example 83, (4-{6-Amino-5-[1-(2,4,5-trifluoro-phenyl)-propoxy]-pyridin-3-yl}-phenyl)-(4-pyrrolidin-1-yl-piperidin-1-yl)-methanone], the inhibition at 1 µM was 11%.

`CNCCCNC(=O)c1ccc(-c2cnc(N)c(OC(C)c3c(Cl)ccc(F)c3Cl)c2)cc1` (centres unmarked) [Example 10, 4-{6-Amino-5-[1-(2,6-dichloro-3-fluorophenyl)ethoxy]pyridin-3-yl}-N-[3-(methylamino)propyl)benzamide] came in with an inhibition at 1 µM of 89%.

In the case of `CC(Oc1cc(-c2ccc(C(=O)NCCN)cc2)cnc1N)c1c(Cl)ccc(F)c1Cl` (centres unmarked) [Example 17, 4-{6-Amino-5-[1-(2,6-dichloro-3-fluorophenyl)ethoxy]pyridin-3-yl}N-(2-aminoethyl) benzamide], the inhibition at 1 µM stood at 90%.
